# From patent US20250326639A1, “METHOD FOR PRODUCING HYDROGEN PEROXIDE” (ARKEMA FRANCE, priority 2022, published 2025)
# How the values were obtained:
# [1] = Solubility of 2-ethyltetrahydroanthrahydroquinone in tested solvents (protocol of the patent); details: 2-THEAHQ dissolved in the tested lactone solvent; hydrogenation of parent quinone, cooled until precipitation, liquid chromatography
# Description: In the following examples, the solubilities of 2-ethyltetrahydroanthrahydroquinone (2-THEAHQ) were tested in different solvents in accordance with the protocols detailed below.
# For 2-ethyltetrahydroanthrahydroquinone, the solubilities were determined by dissolving a weighed amount of the parent quinone in the tested solvent. After the addition of a Pd-based catalyst to the solution, the mixture was hydrogenated until hydrogen absorption ceases, and then cooled until precipitation occurs.
# The samples were analysed by liquid chromatography. Reference mixtures were prepared for calibration.
# [2] = Specific gravity by hydrometer, ASTM-D891; type: physicochemical
# Text: The specific gravity may be determined by means of a hydrometer in accordance with the standard ASTM-D891.
# [3] = Vapour pressure by ebulliometry, ASTM-E1719; type: physicochemical
# Text: The vapour pressure may be determined by ebulliometry in accordance with the standard ASTM-E1719.
# [4] = Solubility in water by coulometric Karl Fischer titration, ASTM-D6304; type: physicochemical
# Text: The solubility in water may be determined by coulometric Karl Fischer titration in accordance with the standard ASTM-D6304.
# [5] = Flash point, closed-cup apparatus, ASTM-D3278; type: physicochemical
# Text: The flash point may be determined using a closed-cup apparatus in accordance with the standard ASTM-D3278.
Structure (SMILES),Solubility of 2-THEAHQ [1],Specific gravity [2],Vapour pressure (Pa) [3],Solubility in water [4],Flash point (° C.) [5],Solubility in water (mg/kg) [4]
CCCCC1CCC(=O)O1 (stereo not drawn) [γ-octalactone],281 mg/mL,,,,,
CCCCCCCC1CCCC(=O)O1 (stereo not drawn) [δ-dodecalactone],276 mg/mL,0.962,0.05 Pa,1113 mg/kg,168 °C,
O=C1CCO1 [β-propiolactone],70 mg/mL,1.137,418 Pa,,70 °C,
CC1CC(=O)O1 (stereo not drawn) [β-butyrolactone],,1.076,212 Pa,,74 °C,158.9 10^3 mg/kg
O=C1CCCO1 [γ-butyrolactone],,1.136,87 Pa,,97 °C,484.3 10^3 mg/kg
